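Test compounds were applied to cells in 96-well plates for 48 hours at 5 doses. Abbreviation: GI50, concentration required for 50% inhibition of growth. Definition used: TGI = concentration required for complete inhibition of growth.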
System: MDA-MB-468 breast
Assay: growth of human tumour cells (NCI), 48 h

Compared with `C[C@H]1COCCN1c1cc(C2(S(=O)(=O)C3CC3)CC2)nc(-c2ccc(NC(=S)NCCO)cc2)n1`, `C=C1C(=O)O[C@H]2[C@H]1CC/C(Cn1cc(-c3ccc(F)cc3)nn1)=C\CC[C@@]1(C)O[C@@H]21` is higher in GI50: less than 10.8 nM for the first, 421 nM for the second.

First: COC1=CC(c2ccc[nH]2)=N/C1=C\c1[nH]c(C)c(CC(=O)OCc2ccccc2)c1C
Second: COC(=O)Nc1nc2ccc(C(=O)c3ccccc3)cc2[nH]1
The GI50 of the first is 1.8-fold higher: 595 nM for the first, 338 nM for the second.

Going from `COc1ccc(/C(C#N)=C/c2cc(OC)c(OC)c(OC)c2)cc1` to `COc1ccc(NC(=O)c2sc3nc(C)c(C(=O)/C=C/c4cccc(OC)c4)cc3c2N)cc1`, the GI50 falls from 19200 nM to 732 nM (26-fold).

Going from `CCCCCCCCCCCCCCCCOP(=O)([O-])OCC[N+](C)(C)C` to `CCCCCCCCCCCCCC[n+]1ccc(C(N)=O)cc1`, the GI50 falls from 1160 nM to 401 nM (2.9-fold).

Compared with `NC(N)=NC(N)=NCCCc1ccco1`, `O=C(CI)Nc1ccc(O)c2ccccc12` is 91-fold lower in GI50: 81800 nM for the first, 900 nM for the second.

Going from `Cn1c(-c2ccccc2)c(/C=C/C2=[N+](C)c3ccccc3C2(C)C)c2ccccc21` to `O=CN1N=C(c2cccc(Nc3ccnc4cc(Cl)ccc34)c2)CC1c1ccccc1` (centres undefined), the GI50 falls from 343 nM to 205 nM (1.7-fold).

Going from `C[n+]1c2ccccc2nc2ccccc21` to `COc1ccc(/C=C2\SC(=Nc3ccccc3)NC2=O)cc1`, the GI50 rises from 711 nM to 3180 nM (4.5-fold).

`CC(C)=CC(=O)N[C@H]1CC[C@]2(C)C3CC[C@]4(C)C(C(C)N(C)C)=CCC4C3CCC2[C@H]1O` (some centres undefined) and `CC([C@H]1CC=C2C3CCC4=C[C@@H](N(C)C)CC[C@]4(C)C3CC[C@@]21C)N(C)C` (some centres undefined) are within 1.5-fold of each other in GI50: 1650 nM for the first, 1420 nM for the second.

`C=C1C(=O)O[C@H]2[C@H]1CC/C(COC(=O)CCCc1c[nH]c3ccccc13)=C\CC[C@@]1(C)O[C@@H]21` and `C=C1C(=O)O[C@H]2[C@H]1CC/C(COC(=O)OC/C1=C/CC[C@@]3(C)O[C@H]3[C@H]3OC(=O)[C@@H](CN(C)C)[C@@H]3CC1)=C\CC[C@@]1(C)O[C@@H]21` are within 1.5-fold of each other in GI50: 1760 nM for the first, 1350 nM for the second.

`O=C1C(=O)c2ccccc2C(O)=C1CCCc1ccc(C2CCCCC2)cc1` and `O=C(/C=C1\C(=O)N(Cc2ccccc2)c2ccccc21)c1ccc(OCCN2CCCCC2)cc1` are within 1.5-fold of each other in GI50: 2200 nM for the first, 1920 nM for the second.

Going from `C[C@H]1CNC(=O)c2cnn3ccc(nc23)N[C@H](C)c2cc(F)ccc2O1` to `Nc1nc2cc(CC[C@H]3C[C@@H](n4ccc5c(N)ncnc54)[C@H](O)[C@@H]3O)ccc2cc1Br`, the GI50 falls from 1850 nM to 234 nM (7.9-fold).

Compared with `CCCCCCCC(=O)SCC/C=C/[C@@H]1CC(=O)NCc2nc(cs2)C2=N[C@@](C)(CS2)C(=O)N[C@@H](C(C)C)C(=O)N1`, `C[C@]12CC[C@H]3[C@@H](CC4SC(N)=NC45C/C(=N/NC(N)=O)CC[C@]35C)[C@@H]1CCC2=O` (some centres undefined) is higher in GI50: less than 11.9 nM for the first, 1600 nM for the second.

`CN(C)CCCC1(c2ccc(F)cc2)OCc2cc(-c3cc4ccccc4s3)ccc21` (centres undefined) and `Cc1ccc2c(c1)C(=O)c1c-2c(OCCCN(C)C)nc2ccccc12` are within 1.5-fold of each other in GI50: 1740 nM for the first, 1430 nM for the second.

Going from `Clc1ccc2nc(CI)c(CI)nc2c1` to `COC(=O)c1c2c(c(C)[n+]([O-])c1C)C(=O)C=C(NCc1cccc(Cl)c1)C2=O`, the GI50 falls from 4700 nM to 225 nM (21-fold).

Compared with `Cn1nc(C(F)(F)F)c(-c2cc(C(F)(F)F)cc(C(F)(F)F)c2)c1-c1ccc(OCc2ccc(Cl)cc2)cc1O`, `Cn1ccnc1C(=O)/C=C/c1ccc(CNC(=O)c2ccc(S(F)(F)(F)(F)F)cc2)cc1` is 2.5-fold higher in GI50: 1430 nM for the first, 3540 nM for the second.

First: O=C(Nc1ccc(F)cc1)Nc1ccc(Br)c(C(F)(F)F)c1
Second: N#C/C(=N\Nc1ccccc1)C(=O)Nc1cc(-c2ccccc2)nn1-c1ccccc1
The GI50 of the first is 1.6-fold higher: 2220 nM for the first, 1420 nM for the second.

Compared with `C=C1SC(=Nc2ccccc2Cl)N(C(=O)c2sc3ccccc3c2Cl)C12CCCCC2`, `Cc1cc(OCCOCCC(F)(F)P(=O)(O)O)ccc1CCc1cnc2c(N)nc3cc(CCC(=O)O)ccc3c2c1` is higher in GI50: 4910 nM for the first, greater than 100000 nM for the second.

`CC(=O)O[C@H]1C(=O)[C@@]2(C)[C@H]([C@H](OC(=O)c3ccccc3)[C@]3(O)C[C@H](OC(=O)[C@H](OC(=O)OC[C@H]4COC(C)(C)O4)[C@@H](NC(=O)c4ccccc4)c4ccccc4)C(C)=C1C3(C)C)[C@]1(OC(C)=O)CO[C@@H]1C[C@@H]2O` gave a GI50 of 27.3 nM.

First: C[C@H]1COCCN1c1cc(C2(S(=O)(=O)C3CC3)CC2)nc(-c2ccc(NC(=S)NCCO)cc2)n1
Second: C=C1C(=O)O[C@H]2[C@H]1CC/C(Cn1cc(-c3ccc(F)cc3)nn1)=C\CC[C@@]1(C)O[C@@H]21
The TGI of the first is 17-fold lower: 0.0936 µM for the first, 1.58 µM for the second.

Going from `COC1=CC(c2ccc[nH]2)=N/C1=C\c1[nH]c(C)c(CC(=O)OCc2ccccc2)c1C` to `COC(=O)Nc1nc2ccc(C(=O)c3ccccc3)cc2[nH]1`, the TGI rises from 2.45 µM to greater than 100 µM.

Compared with `COc1ccc(/C(C#N)=C/c2cc(OC)c(OC)c(OC)c2)cc1`, `COc1ccc(NC(=O)c2sc3nc(C)c(C(=O)/C=C/c4cccc(OC)c4)cc3c2N)cc1` is lower in TGI: greater than 100 µM for the first, 2.24 µM for the second.

`CCCCCCCCCCCCCCCCOP(=O)([O-])OCC[N+](C)(C)C` and `CCCCCCCCCCCCCC[n+]1ccc(C(N)=O)cc1` are within 1.5-fold of each other in TGI: 3.56 µM for the first, 2.76 µM for the second.

Going from `NC(N)=NC(N)=NCCCc1ccco1` to `O=C(CI)Nc1ccc(O)c2ccccc12`, the TGI falls from 196 µM to 2.57 µM (76-fold).

Compared with `Cn1c(-c2ccccc2)c(/C=C/C2=[N+](C)c3ccccc3C2(C)C)c2ccccc21`, `O=CN1N=C(c2cccc(Nc3ccnc4cc(Cl)ccc34)c2)CC1c1ccccc1` (centres undefined) is 4.3-fold lower in TGI: 2.85 µM for the first, 0.656 µM for the second.

Compared with `C[n+]1c2ccccc2nc2ccccc21`, `COc1ccc(/C=C2\SC(=Nc3ccccc3)NC2=O)cc1` is 8.2-fold higher in TGI: 2.69 µM for the first, 22 µM for the second.

`CC(C)=CC(=O)N[C@H]1CC[C@]2(C)C3CC[C@]4(C)C(C(C)N(C)C)=CCC4C3CCC2[C@H]1O` (some centres undefined) and `CC([C@H]1CC=C2C3CCC4=C[C@@H](N(C)C)CC[C@]4(C)C3CC[C@@]21C)N(C)C` (some centres undefined) are within 1.5-fold of each other in TGI: 6.33 µM for the first, 4.72 µM for the second.

`C=C1C(=O)O[C@H]2[C@H]1CC/C(COC(=O)CCCc1c[nH]c3ccccc13)=C\CC[C@@]1(C)O[C@@H]21` and `C=C1C(=O)O[C@H]2[C@H]1CC/C(COC(=O)OC/C1=C/CC[C@@]3(C)O[C@H]3[C@H]3OC(=O)[C@@H](CN(C)C)[C@@H]3CC1)=C\CC[C@@]1(C)O[C@@H]21` are within 1.5-fold of each other in TGI: 4.01 µM for the first, 4 µM for the second.

Compared with `O=C1C(=O)c2ccccc2C(O)=C1CCCc1ccc(C2CCCCC2)cc1`, `O=C(/C=C1\C(=O)N(Cc2ccccc2)c2ccccc21)c1ccc(OCCN2CCCCC2)cc1` is 5.7-fold lower in TGI: 21.5 µM for the first, 3.8 µM for the second.

First: C[C@H]1CNC(=O)c2cnn3ccc(nc23)N[C@H](C)c2cc(F)ccc2O1
Second: Nc1nc2cc(CC[C@H]3C[C@@H](n4ccc5c(N)ncnc54)[C@H](O)[C@@H]3O)ccc2cc1Br
The TGI of the first is 1.8-fold higher: 14.6 µM for the first, 7.98 µM for the second.

Compared with `CCCCCCCC(=O)SCC/C=C/[C@@H]1CC(=O)NCc2nc(cs2)C2=N[C@@](C)(CS2)C(=O)N[C@@H](C(C)C)C(=O)N1`, `C[C@]12CC[C@H]3[C@@H](CC4SC(N)=NC45C/C(=N/NC(N)=O)CC[C@]35C)[C@@H]1CCC2=O` (some centres undefined) is 2.6-fold higher in TGI: 1.21 µM for the first, 3.17 µM for the second.

`CN(C)CCCC1(c2ccc(F)cc2)OCc2cc(-c3cc4ccccc4s3)ccc21` (centres undefined) and `Cc1ccc2c(c1)C(=O)c1c-2c(OCCCN(C)C)nc2ccccc12` are within 1.5-fold of each other in TGI: 3.41 µM for the first, 3.35 µM for the second.

First: Clc1ccc2nc(CI)c(CI)nc2c1
Second: COC(=O)c1c2c(c(C)[n+]([O-])c1C)C(=O)C=C(NCc1cccc(Cl)c1)C2=O
The TGI of the first is 26-fold higher: 19.1 µM for the first, 0.732 µM for the second.

`Cn1nc(C(F)(F)F)c(-c2cc(C(F)(F)F)cc(C(F)(F)F)c2)c1-c1ccc(OCc2ccc(Cl)cc2)cc1O` and `Cn1ccnc1C(=O)/C=C/c1ccc(CNC(=O)c2ccc(S(F)(F)(F)(F)F)cc2)cc1` are within 1.5-fold of each other in TGI: 6.36 µM for the first, 8.71 µM for the second.

Going from `O=C(Nc1ccc(F)cc1)Nc1ccc(Br)c(C(F)(F)F)c1` to `N#C/C(=N\Nc1ccccc1)C(=O)Nc1cc(-c2ccccc2)nn1-c1ccccc1`, the TGI falls from 9.54 µM to 5.88 µM (1.6-fold).

`C=C1SC(=Nc2ccccc2Cl)N(C(=O)c2sc3ccccc3c2Cl)C12CCCCC2` and `Cc1cc(OCCOCCC(F)(F)P(=O)(O)O)ccc1CCc1cnc2c(N)nc3cc(CCC(=O)O)ccc3c2c1` cannot be ordered by TGI: greater than 100 µM for the first, greater than 100 µM for the second.
